# From paper PMC8869984, “Multifunctional Silver(I) Complexes with Metronidazole Drug Reveal Antimicrobial Properties and Antitumor Activity against Human Hepatoma and Colorectal Adenocarcinoma Cells” (Cancers, 2022)
# Like-named read-outs stand apart in the source and are kept apart here.
# Experiments:
# Caco-2 cells [1] = experiment: MTT assay (mitochondrial activity), 72 h exposure; type: cell-based, human; conditions: Caco-2, MTT
# P. aeruginosa ATCC 9027 = experiment: micro-dilution broth method (MIC, MBC); type: cell-based, Pseudomonas aeruginosa
# [2] = tested on: S. typhimurium ATCC 14028; experiment: micro-dilution broth method (MIC, MBC); type: cell-based, Salmonella Typhimurium
# C. jejunii ATCC 33291 = experiment: micro-dilution broth method (MIC, MBC); type: cell-based, Campylobacter jejunii
# E. faecalis ATCC 29212 = experiment: micro-dilution broth method (MIC, MBC); type: cell-based, Enterococcus faecalis
# HepG2 cells [3] = experiment: LDH leakage assay (membrane integrity), 72 h exposure; type: cell-based, human
# Protocol: (§1) The human hepatoma (HepG2) and colorectal adenocarcinoma (Caco-2) cells were purchased from the American Type Culture Collection: ATCC HB-8065 and ATCC HTB-37, respectively. These cells were cultured in Minimum Essential Medium Eagle (MEME) (ATCC). The murine fibroblasts cell line (Balb/c 3T3 clone A31) (gift from the Department of Swine Diseases of the National Veterinary Research Institute in Pulawy) was cultured in Dulbecco’s Modified Eagle Medium (DMEM) (ATCC). The media were supplemented with 10% BCS (Balb/c 3T3), 10% FBS (HepG2), 20% FBS (Caco-2), 1% L-glutamine, 1% antibiotic solution. The cells were maintained in 75 cm^2 cell culture flasks (NUNC) in a humidified incubator at 37 °C in an atmosphere of 5% CO2. The medium was refreshed every two or three days, and the cells were trypsinized by 0.25% trypsin–0.02% EDTA after reaching 70–80% confluence. Single cell suspensions were prepared and adjusted to a density of 2 × 10^5 cell/mL^−1 (HepG2), 1 × 10^5 cell/mL^−1 (Caco-2) and 5 × 10^4 cell/mL^−1 (Balb/c 3T3). The cell suspension was transferred to 96-well plates (100 µL/well) and incubated for 24 h before the exposure to the studied compounds. Stock solutions of ligands and metal complexes were prepared in sterile water and diluted with culture medium to obtain a concentration range from 0.1 to 10 µM. The final concentration of sterile water was 0.1% in the medium. […] As a negative control, cultured cells were grown in the absence of studied compounds. Each concentration was tested in six replicates in three independent experiments. Cytotoxicity was assessed after 72 h of exposure of the cells to compounds. The medium was not changed during the incubation time.
# The integrity of the plasma membrane was assessed through the test of lactate dehydrogenase (LDH) release, which was monitored using the commercially available Cytotoxicity Detection Kit (LDH) (Roche Diagnostics, Warsaw, Poland). […] The absorbance was measured at 492 nm in a microplate reader Synergy HTX multi-mode reader (BioTek® Instruments Inc., Winooski, VT, USA) using a blank as a reference. […]
# Balb/c 3T3 cells = experiment: MTT assay (mitochondrial activity), 72 h exposure; type: cell-based, murine
# Protocol: as §1
# The metabolic activity of living cells was assessed by the measurement of the activity of dehydrogenases. […] The plate was shaken for 15 min at room temperature and transferred to a microplate reader Synergy HTX multi-mode reader (BioTek® Instruments Inc., Winooski, VT, USA) to measure the absorbance at 570 nm, using a blank as a reference. Cytotoxicity was expressed as a percentage of the negative control. […]
# B. subtilis ATCC 6633 = experiment: micro-dilution broth method (MIC, MBC); type: cell-based, Bacillus subtilis
# M. luteus ATCC 10240 = experiment: micro-dilution broth method (MIC, MBC); type: cell-based, Micrococcus luteus
# Caco-2 cells [4] = experiment: TPC assay (total protein content), 72 h exposure; type: cell-based, human; conditions: Caco-2, TPC
# HepG2 cells [5] = experiment: TPC assay (total protein content), 72 h exposure; type: cell-based, human
# Protocol: as §1
# This assay is based upon staining the total cellular protein (proliferation). After the incubation, the medium containing the drug was removed, and 100 µL Coomassie brilliant blue R-250 dye was added to each well. The plate was shaken for 10 min. Then, the stain was removed and the cells were rinsed twice with 100 µL of washing solution (glacial acetic acid/ethanol/water, 5:10:85, v:v:v). After that, 100 µL of the desorbing solution (1 M potassium acetate) was added, and plates were shaken again for 10 min. The absorbance was measured at 595 nm in a microplate reader Synergy HTX multi-mode reader (BioTek® Instruments Inc., Winooski, VT, USA) using a blank as a reference. Cytotoxicity was expressed as a percentage of the negative control.
# The study was performed in three independent experiments. The obtained results are presented as mean values ± SD (standard deviation). The assessment of the cytotoxicity data used a one-way analysis of variance (ANOVA) followed by Dunnett’s post hoc test, which was applied to determine significance relative to the negative control.
# [6] = tested on: C. perfringens ATCC 13124; experiment: microbe, parasite or virus in culture; type: cell-based, Clostridium perfringens
# Caco-2 cells [7] = experiment: NRU assay (lysosomal activity), 72 h exposure; type: cell-based, human; conditions: Caco-2, NRU
# [8] = P. aeruginosa ATCC 9027, value in brackets
# [9] = S. typhimurium ATCC 14028, value in brackets
# [10] = C. jejunii ATCC 33291, value in brackets
# [11] = E. faecalis ATCC 29212, value in brackets
# [12] = B. subtilis ATCC 6633, value in brackets
# [13] = M. luteus ATCC 10240, value in brackets
# [14] = C. perfringens ATCC 13124, value in brackets
# [15] = Clostridium perfringens, ATCC13124
smiles,measurement,setting,value
"Cc1ncc([N+](=O)[O-])n1CCO [MTZ, 2-Methyl-5-nitroimidazole-1-ethanol]",IC50,"Caco-2 cells [1]; Homo sapiens, mean ± SD, n = 3",> 10 µM
same,MBC,P. aeruginosa ATCC 9027; [8],> 5.85 µM/mL
same,MIC,P. aeruginosa ATCC 9027; [8],> 5.85 µM/mL
same,MBC,"P. aeruginosa ATCC 9027; Pseudomonas aeruginosa, ATCC9027, P. aeruginosa ATCC 9027, read-out: MBC",> 1000 µg/mL
same,MIC,"P. aeruginosa ATCC 9027; Pseudomonas aeruginosa, ATCC9027, P. aeruginosa ATCC 9027, read-out: MIC",> 1000 µg/mL
same,MBC,[2]; [9],> 5.85 µM/mL
same,MIC,[2]; [9],> 5.85 µM/mL
same,MBC,"[2]; Salmonella enterica, S. typhimurium ATCC 14028, read-out: MBC",> 1000 µg/mL
same,MIC,"[2]; Salmonella enterica, S. typhimurium ATCC 14028, read-out: MIC",> 1000 µg/mL
same,MBC,C. jejunii ATCC 33291; [10],> 5.85 µM/mL
same,MIC,C. jejunii ATCC 33291; [10],2.93 µM/mL
same,MBC,"C. jejunii ATCC 33291; Campylobacter, ATCC33291, C. jejunii ATCC 33291, read-out: MBC",> 1000 µg/mL
same,MIC,"C. jejunii ATCC 33291; Campylobacter, ATCC33291, C. jejunii ATCC 33291, read-out: MIC",500 µg/mL
same,MBC,E. faecalis ATCC 29212; [11],> 5.85 µM/mL
same,MIC,E. faecalis ATCC 29212; [11],> 5.85 µM/mL
same,MBC,"E. faecalis ATCC 29212; Enterococcus faecalis, ATCC29212, E. faecalis ATCC 29212, read-out: MBC",> 1000 µg/mL
same,MIC,"E. faecalis ATCC 29212; Enterococcus faecalis, ATCC29212, E. faecalis ATCC 29212, read-out: MIC",> 1000 µg/mL
same,IC50,"HepG2 cells [3]; Homo sapiens, mean ± SD, n = 3",> 10 µM
same,IC50,"Balb/c 3T3 cells; Mus musculus, BALB/c3T3, Balb/c 3T3, MTT, mean ± SD, n = 3",> 10 µM
same,MBC,B. subtilis ATCC 6633; [12],1.46 µM/mL
same,MIC,B. subtilis ATCC 6633; [12],0.73 µM/mL
same,MBC,"B. subtilis ATCC 6633; Bacillus subtilis, ATCC6633, B. subtilis ATCC 6633, read-out: MBC",250 µg/mL
same,MBC,M. luteus ATCC 10240; [13],> 5.85 µM/mL
same,MIC,M. luteus ATCC 10240; [13],5.85 µM/mL
same,MBC,"M. luteus ATCC 10240; Micrococcus luteus, ATCC10240, M. luteus ATCC 10240, read-out: MBC",> 1000 µg/mL
same,MIC,"M. luteus ATCC 10240; Micrococcus luteus, ATCC10240, M. luteus ATCC 10240, read-out: MIC",1000 µg/mL
same,IC50,"Caco-2 cells [4]; Homo sapiens, mean ± SD, n = 3",> 10 µM
same,IC50,"HepG2 cells [5]; Homo sapiens, mean ± SD, n = 3",> 10 µM
same,MBC,[6]; [14],0.01 µM/mL
same,MIC,[6]; [14],0.01 µM/mL
same,MBC,[6]; [15],1.95 µg/mL
same,MIC,[6]; [15],1.95 µg/mL
same,IC50,"Caco-2 cells [7]; Homo sapiens, mean ± SD, n = 3",> 10 µM
Cc1ncc([N+](=O)[O-])n1CCO.Cc1ncc([N+](=O)[O-])n1CCO.Cc1ncc([N+](=O)[O-])n1CCO.Cc1ncc([N+](=O)[O-])n1CCO.O=S(=O)([O-])[O-].[Ag+].[Ag+] [[Ag(MTZ)2]2SO4],lowest concentration with inhibition of mitochondrial activity,Caco-2 cells [1]; Figure 6,1.0 µM
same,MBC,P. aeruginosa ATCC 9027; P. aeruginosa ATCC 9027,15.6 µg/mL
same,MIC,P. aeruginosa ATCC 9027; P. aeruginosa ATCC 9027,7.8 µg/mL
same,MBC,P. aeruginosa ATCC 9027; [8],0.014 µM/mL
same,MIC,P. aeruginosa ATCC 9027; [8],0.008 µM/mL
same,MBC,[2]; S. typhimurium ATCC 14028,62.5 µg/mL
same,MIC,[2]; S. typhimurium ATCC 14028,15.6 µg/mL
same,MBC,[2]; [9],0.06 µM/mL
same,MIC,[2]; [9],0.014 µM/mL
same,MBC,C. jejunii ATCC 33291; C. jejunii ATCC 33291,500 µg/mL
same,MBC,C. jejunii ATCC 33291; [10],0.46 µM/mL
same,MIC,C. jejunii ATCC 33291; [10],0.23 µM/mL
same,MIC,"C. jejunii ATCC 33291; C. jejunii ATCC 33291, listed as [Ag(MTZ)2]2SO4·5H2O",250 µg/mL
same,MBC,E. faecalis ATCC 29212; E. faecalis ATCC 29212,62.5 µg/mL
same,MIC,E. faecalis ATCC 29212; E. faecalis ATCC 29212,31.3 µg/mL
same,MBC,E. faecalis ATCC 29212; [11],0.06 µM/mL
same,MIC,E. faecalis ATCC 29212; [11],0.03 µM/mL
same,lowest concentration with significant (p ≤ 0.05) effect,HepG2 cells [3]; Figure 6,5.0 µM
same,lowest concentration with significant (p ≤ 0.05) effect,"Balb/c 3T3 cells; Balb/c 3T3, MTT, Figure 6",5.0 µM
same,MBC,B. subtilis ATCC 6633; B. subtilis ATCC 6633,15.6 µg/mL
same,MIC,B. subtilis ATCC 6633; B. subtilis ATCC 6633,15.6 mg/L
same,MBC,B. subtilis ATCC 6633; [12],0.014 µM/mL
same,MIC,B. subtilis ATCC 6633; [12],0.014 µM/mL
same,MIC,M. luteus ATCC 10240; M. luteus ATCC 10240,7.8 µg/mL
same,MBC,M. luteus ATCC 10240; [13],0.12 µM/mL
same,MIC,M. luteus ATCC 10240; [13],0.007 µM/mL
same,lowest concentration with decreased total protein content,Caco-2 cells [4]; Figure 6,5.0 µM
same,lowest concentration with significant (p ≤ 0.05) effect,HepG2 cells [5]; Figure 6,5.0 µM
same,MBC,[6]; C. perfringens ATCC 13124,3.9 µg/mL
same,MIC,[6]; C. perfringens ATCC 13124,1.95 µg/mL
same,MBC,[6]; [14],0.004 µM/mL
same,MIC,[6]; [14],0.002 µM/mL
same,lowest concentration with inhibition of lysosomal activity,Caco-2 cells [7]; Figure 6,1.0 µM
